Results as given in patent US6803369B1, “Compounds and methods for the treatment of neoplastic disease” (priority 2000, dated 2004).

Target: complex between DNA gyrase and pBR322 DNA (Staphylococcus aureus, UniProt P0A0K8+P20831)
Experiment: Binding assay demonstrating ternary complex formation (SEC with HPLC/MS detection)
Parameters: species or system S. aureus
Description: The above-defined compounds are an exemplary class of compounds, which display the attributes of the claimed compounds of this invention, that is, they act primarily by inhibition of topoisomerase. While the compounds and methods of the invention are directed to eukaryotic, particularly mammalian topoisomerase inhibition, bacterial DNA gyrase was used to illustrate the mechanism of action. The evidence, provided by bacterial enzyme, for such biological activity includes the fact that selective resistance to the compounds is associated with point mutations in Staphylococcus aureus GyrA and B subunits. Further, Escherichia coli and S. aureus DNA gyrase supercoiling activity is inhibited in vitro by the compounds. A ternary complex has been isolated which is composed of pBR322 relaxed circular DNA, S. aureus DNA gyrase, and test compounds. […] The compounds of the invention also show antagonism of ciprofloxacin-induced cleavage of linear DNA.
An excess of test compound is added, typically as a mixture of three ligands, and after incubation the excess compound is separated from the resulting DNA:gyrase complex using size exclusion chromatography (SEC), with reverse phase HPLC and on-line MS detection to identify and quantify the bound compound.

Sequence of complex between DNA gyrase and pBR322 DNA (P20831 whole entry): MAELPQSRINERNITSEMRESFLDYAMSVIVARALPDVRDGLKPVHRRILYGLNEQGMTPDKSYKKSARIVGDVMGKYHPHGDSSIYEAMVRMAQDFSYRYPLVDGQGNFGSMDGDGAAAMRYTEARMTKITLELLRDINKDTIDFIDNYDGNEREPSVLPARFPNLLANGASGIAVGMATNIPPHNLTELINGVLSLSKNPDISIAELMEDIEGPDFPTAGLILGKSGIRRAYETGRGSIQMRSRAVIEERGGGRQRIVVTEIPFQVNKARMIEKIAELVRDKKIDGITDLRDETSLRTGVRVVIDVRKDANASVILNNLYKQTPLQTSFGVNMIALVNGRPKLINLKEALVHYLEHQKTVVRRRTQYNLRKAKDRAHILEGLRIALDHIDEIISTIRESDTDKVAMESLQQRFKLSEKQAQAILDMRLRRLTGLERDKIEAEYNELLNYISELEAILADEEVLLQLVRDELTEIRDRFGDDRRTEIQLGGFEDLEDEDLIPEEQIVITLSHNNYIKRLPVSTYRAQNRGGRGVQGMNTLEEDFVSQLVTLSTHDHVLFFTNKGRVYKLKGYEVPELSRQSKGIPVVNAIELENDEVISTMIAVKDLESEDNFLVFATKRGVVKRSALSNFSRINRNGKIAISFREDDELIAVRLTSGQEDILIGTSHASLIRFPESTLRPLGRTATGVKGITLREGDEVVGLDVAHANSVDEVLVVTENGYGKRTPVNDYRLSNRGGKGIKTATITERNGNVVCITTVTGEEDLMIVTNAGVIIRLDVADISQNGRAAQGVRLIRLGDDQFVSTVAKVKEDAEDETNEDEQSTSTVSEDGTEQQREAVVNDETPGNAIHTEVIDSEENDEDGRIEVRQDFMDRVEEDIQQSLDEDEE
Sequence of complex between DNA gyrase and pBR322 DNA (P0A0K8 whole entry): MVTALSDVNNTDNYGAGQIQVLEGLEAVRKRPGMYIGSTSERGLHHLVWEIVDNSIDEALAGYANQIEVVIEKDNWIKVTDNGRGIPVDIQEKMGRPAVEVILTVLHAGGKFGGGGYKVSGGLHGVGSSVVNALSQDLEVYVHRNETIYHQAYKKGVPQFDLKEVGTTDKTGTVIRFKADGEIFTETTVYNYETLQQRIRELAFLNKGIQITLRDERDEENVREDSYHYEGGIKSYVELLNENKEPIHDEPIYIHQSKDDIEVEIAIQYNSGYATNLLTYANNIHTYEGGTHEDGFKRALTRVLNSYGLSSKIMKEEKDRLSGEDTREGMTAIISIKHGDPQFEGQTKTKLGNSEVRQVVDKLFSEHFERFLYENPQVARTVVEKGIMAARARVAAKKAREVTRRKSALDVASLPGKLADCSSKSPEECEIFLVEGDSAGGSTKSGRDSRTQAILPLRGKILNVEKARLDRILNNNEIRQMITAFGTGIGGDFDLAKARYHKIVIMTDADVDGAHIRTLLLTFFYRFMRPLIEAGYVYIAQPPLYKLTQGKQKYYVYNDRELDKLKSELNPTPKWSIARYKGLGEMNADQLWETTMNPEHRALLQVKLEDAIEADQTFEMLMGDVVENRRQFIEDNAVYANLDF

SMILES: CCCCCCCN1CCN(C[C@H](O)c2ccnc3ccc(OC)cc23)C[C@H]1CO.O=C(O)C(=O)O.O=C(O)C(=O)O [SB366676-AY, [2S]-1-Heptyl-4-[2-(R)-hydroxy-2-(6methoxyquinolin-4-yl)ethyl]-2-hydroxymethylpiperazine dioxalate]
- detection in the high molecular weight fraction on the SEC column (DNA gyrase + pBR322 DNA, clear resolution from excess ligand): detected in the high molecular weight fraction
- binding detected in mixture of ligands (in the presence of SB369890 and BRL26172CC): Only binding of SB366676-AY
- stoichiometry: molecules bound to each gyrase:DNA complex (stoichiometry studies): two
